This note sets out measurements from patent US20240408216A1, “PROTEIN INHIBITOR OR DEGRADING AGENT, PHARMACEUTICAL COMPOSITION CONTAINING SAME AND PHARMACEUTICAL USE” (JING MEDICINE TECHNOLOGY (SHANGHAI) LTD., priority 2021, published 2024).

Assay [1] has as its system A431. In words: Cell proliferation IC50 assay (Cell Titer GLO), A431 cells. Type of assay: cell-based. Conditions: Homo sapiens, A-431; Table 6; A431, 72 h; read-out: A431 IC50. Put shortly:
(§1)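 Cells plated at 2000-4000 cells/well and treated the next day with serially diluted compound for 72 h at 37° C, 5% CO2. Viability read by CellTiter-Glo luminescence, normalised to DMSO and cell-free blank controls; IC50 fitted from growth inhibition curves.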

In assay [2] the test system is BaF3 (EGFR L858R/T790M/C797S). In words: Cell proliferation IC50 assay (Cell Titer GLO), BaF3 LTC cells. Type of assay: cell-based. Conditions: Mus musculus, Ba/F3 EGFR, Table 6, 72 h. Put shortly:
as §1
(In general: Cellular ATP, detected with luciferase, serves as a proxy for viable cell number.)

The subject of assay [3] is BaF3 (EGFR WT). In words: Cell proliferation IC50 assay (Cell Titer GLO), BaF3 WT cells. Type of assay: cell-based. Conditions: Mus musculus, Ba/F3 EGFR, Table 6, 10 ng/ml EGF, 72 h. The essentials: as §1
The test system of assay [4] is BaF3 patent. In words: Cell proliferation IC50 assay (Cell Titer GLO), BaF3 parental cells. Type of assay: cell-based. Conditions: Mus musculus, Table 6, 10 ng/ml mIL3, 72 h. The procedure:
IC50 of compounds in the present invention was determined by Cell Titer GLO reagent from Promega. The procedures are as follows:
Tumor cells were cultured in specified medium in an incubator at 37° C. and 5% CO2. The cells were passaged periodically. Cells at the logarithmic growth phase were collected for plating at a density of 2000-4000 cells/well. The next day, the compounds of the present invention were serially diluted and added to the cells, with DMSO being the negative control and the culture media without cells being the blank control. The plate was incubated in the incubator for 72 h. The cell viability assay was performed by adding the detection reagents to the cell culture media according to Cell Titer GLO reagent instructions and detecting luminescent signals on an EnVision microplate reader (PerkinElmer).
Inhibition of cell growth by the compounds of the present invention was plotted by Prism Graphpad software for statistically calculating the IC50 of the compound of the present invention.

Assay [5] deals with T1, BaF3 (EGFR Del19/C797S) (Homo sapiens, UniProt P00533, C797S, cells depend on it, form not given).
T1 construct: BaF3 (EGFR Del19/C797S)|DC|RPMI1640 + 10% FBS
In words: Cell proliferation IC50 assay (Cell Titer GLO), BaF3 DC cells. It counts as cell-based, mouse. Conditions: Table 6, 72 h. The essentials: as §1

In assay [6] the test system is BaF3 (EGFR Del19/T790M/C797S). Briefly: Cell proliferation IC50 assay (Cell Titer GLO), BaF3 DTC cells. It counts as cell-based. Conditions: Mus musculus, Ba/F3 EGFR-Del19/T790M/C797S, Table 6, 72 h. Put shortly: as §1

pIC50: −log10 of the molar value.

T1 sequence (P00533 with tags, fused parts or gaps DEL746-750/C797S, form open): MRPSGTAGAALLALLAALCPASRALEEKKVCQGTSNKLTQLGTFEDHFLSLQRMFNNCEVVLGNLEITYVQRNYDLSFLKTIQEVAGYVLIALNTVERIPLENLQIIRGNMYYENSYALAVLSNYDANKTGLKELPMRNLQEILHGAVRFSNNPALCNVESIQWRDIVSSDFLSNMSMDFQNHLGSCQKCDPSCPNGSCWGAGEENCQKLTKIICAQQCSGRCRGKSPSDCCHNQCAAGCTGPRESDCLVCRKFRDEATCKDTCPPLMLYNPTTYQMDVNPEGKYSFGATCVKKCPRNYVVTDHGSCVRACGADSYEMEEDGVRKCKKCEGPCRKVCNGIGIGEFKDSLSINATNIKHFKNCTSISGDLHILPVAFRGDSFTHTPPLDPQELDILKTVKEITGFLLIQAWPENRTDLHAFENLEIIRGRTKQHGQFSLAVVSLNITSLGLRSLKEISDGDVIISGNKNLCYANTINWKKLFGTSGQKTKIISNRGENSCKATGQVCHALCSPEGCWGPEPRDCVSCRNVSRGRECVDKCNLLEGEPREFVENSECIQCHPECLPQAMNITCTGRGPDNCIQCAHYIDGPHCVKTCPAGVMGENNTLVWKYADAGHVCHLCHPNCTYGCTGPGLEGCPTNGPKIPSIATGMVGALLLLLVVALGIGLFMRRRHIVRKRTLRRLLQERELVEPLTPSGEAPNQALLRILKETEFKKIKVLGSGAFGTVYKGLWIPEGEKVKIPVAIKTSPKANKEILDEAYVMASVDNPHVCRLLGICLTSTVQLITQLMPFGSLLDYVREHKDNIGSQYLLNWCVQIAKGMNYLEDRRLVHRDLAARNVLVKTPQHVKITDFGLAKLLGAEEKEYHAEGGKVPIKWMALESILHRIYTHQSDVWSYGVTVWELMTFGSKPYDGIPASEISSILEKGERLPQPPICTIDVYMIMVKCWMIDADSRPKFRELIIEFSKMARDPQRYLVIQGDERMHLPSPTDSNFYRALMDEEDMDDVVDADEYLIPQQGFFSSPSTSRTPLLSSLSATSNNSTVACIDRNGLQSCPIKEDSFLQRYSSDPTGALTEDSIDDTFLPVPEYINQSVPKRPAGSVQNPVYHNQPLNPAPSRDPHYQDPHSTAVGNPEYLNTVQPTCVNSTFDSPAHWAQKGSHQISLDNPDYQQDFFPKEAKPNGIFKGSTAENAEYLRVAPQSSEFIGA

As usually defined, the pIC50 is the IC50 on a negative log10 scale, so that one unit is a factor of ten. Take `CCc1cc(Nc2ncc(Cl)c(Nc3ccccc3P(C)(C)=O)n2)c(OC)cc1N1CCC(N2CCC3(CCC(Cc4cccc5c4CN(C4CCC(=O)NC4=O)C5=O)CC3)C2)CC1` (stereo not drawn) [Example E45]: the pIC50 was 5.91 in assay [1]; 7.67 in assay [2]; 6.23 in assay [3]; 6.66 in assay [4]; 8.07 in assay [5].

`COc1cc(N2CCC(N3CCN(CCC#Cc4cccc5c4CN(C4CCC(=O)NC4=O)C5=O)CC3)CC2)c(C)cc1Nc1ncc(Br)c(Nc2ccccc2P(C)(C)=O)n1` (stereo not drawn) [Example E7]: the pIC50 in assay [2] is 7.37; in assay [3] it was 6.87; in assay [4], 6.57; in assay [5], 7.83.

As for `COc1cc(N2CCC(N3CCN(CCC#Cc4cccc5c4CN(C4CCC(=O)NC4=O)C5=O)CC3)CC2)c(C)cc1Nc1ncc(Br)c(Nc2ccc3c(c2P(C)(C)=O)OCCO3)n1` (stereo not drawn) [Example E43], the pIC50 is 5.97 in assay [1]; 7.80 in assay [2]; 6.48 in assay [3]; 6.92 in assay [4]; 8.18 in assay [5].

Consider `CCc1cc(Nc2ncc(Cl)c(Nc3ccc(F)cc3P(C)(C)=O)n2)c(OC)cc1N1CCC(N2CCN(CCOc3cccc4c3CN(C3CCC(=O)NC3=O)C4=O)CC2)CC1` (stereo not drawn) [Example E124], for which the pIC50 in assay [1] was 5.90; in assay [2], 6.97; in assay [3], 5.40; in assay [6] it was 8.17; in assay [5], 6.97.

In the case of `COc1cc2c(cc1Nc1ncc(Cl)c(Nc3ccccc3P(C)(C)=O)n1)CCN(C1CCN(CCCCOc3cccc4c3CN(C3CCC(=O)NC3=O)C4=O)CC1)C2` (stereo not drawn) [Example E86], the pIC50 in assay [1] was 5.78; in assay [2], 6.71; in assay [3], 6.67; in assay [6], 7.39; in assay [5], 7.48.

For `CCc1cc(Nc2ncc(Cl)c(Nc3ccccc3P(C)(C)=O)n2)c(OC)cc1N1CCC(N2CCN(CCCCCc3ccc4c(c3)CN(C3CCC(=O)NC3=O)C4=O)CC2)CC1` (stereo not drawn) [Example E38], the pIC50 in assay [1] is 5.99; in assay [2], 7.78; in assay [3], 6.34; in assay [6], 8.21; in assay [5] it was 8.47.

Consider `CCc1cc(Nc2ncc(-c3cnn(C)c3)c(Nc3ccccc3P(C)(C)=O)n2)c(OC)cc1N1CCC(N2CCN([C@H]3C[C@@H](Oc4cccc5c4CN(C4CCC(=O)NC4=O)C5=O)C3)CC2)CC1` (stereo partly drawn) [Example E69], for which the pIC50 in assay [1] is 6.46; in assay [2], 6.94; in assay [3], 6.78; in assay [6], 7.82; in assay [5], 9.15.

As to `CCc1cc(Nc2ncc(Cl)c(Nc3ccc(C)c(C)c3P(C)(C)=O)n2)c(OC)cc1N1CCC(N2CCN(CCCCOc3cccc4c3CN(C3CCC(=O)NC3=O)C4=O)CC2)CC1` (stereo not drawn) [Example E63], the pIC50 was 5.94 in assay [1]; 7.31 in assay [2]; 6.18 in assay [3]; 8.14 in assay [6]; 8.59 in assay [5].

Turning to `CCc1cc(Nc2ncc(Cl)c(Nc3ccccc3P(C)(C)=O)n2)c(OC)cc1N1CCC(N2CCN(CCOc3cccc4c3CN(C3CCC(=O)NC3=O)C4=O)C(C)(C)C2)CC1` (stereo not drawn) [Example E108], the pIC50 is 5.45 in assay [1]; 7.12 in assay [2]; 5.76 in assay [3]; 7.98 in assay [6]; 8.49 in assay [5].

As to `CCc1cc(Nc2ncc(Cl)c(Nc3ccccc3P(C)(C)=O)n2)cc(Cl)c1N1CCC(N2CCN(CCC#Cc3cccc4c3CN(C3CCC(=O)NC3=O)C4=O)CC2)CC1` (stereo not drawn) [Example E77], the pIC50 in assay [1] is 6.19; in assay [2] it was 7.35; in assay [3], 7.17; in assay [6] it was 7.79; in assay [5], 7.87.

Take `COc1cc(N2CCC(N3CCN(CCC#Cc4cccc5c4CN(C4CCC(=O)NC4=O)C5=O)CC3)CC2)c(C(N)=O)cc1Nc1ncc(Cl)c(Nc2ccccc2P(C)(C)=O)n1` (stereo not drawn) [Example E61]: the pIC50 in assay [1] was under 5.40; in assay [2], 6.21; in assay [3], under 5.40; in assay [6], 6.55; in assay [5], 7.42.
